Measured values from patent publication US4448785A, “N-Unsaturated fatty acid amides of tryptophan ester homologues and anti-cholesteric use thereof” (Sandoz, Inc., priority 1982, dated 1984).
Values joined by “and” are separate entries in the source; they are usually repeats but may differ in a detail not shown here. Equal values may be shown once.

Experiments:
[1] = tested on: monkey aortic smooth muscle cells; experiment: Cell culture cholesterol ester test, monkey aortic smooth muscle cells (Table 2); type: cell-based, Rhesus monkey; details: 5% HRS
Excerpt: The compounds of formula I of this invention are useful as pharmaceutical agents in animals. In particular, the compounds of the formula I are useful in controlling the cholesterol ester content of mammalian arterial walls and are therefore particularly indicated for use as anti-atherosclerotic agents, ie. agents useful in the prophylactic treatment of atherosclerosis and in the controlling of atherosclerotic conditions due to cholesterol ester accumulation in the arterial walls. Such ability of the compounds of the formula I is indicated e.g., by known test procedures in which the total cholesterol ester content of cultured cells is shown to be reduced by a test compound, as compared to untreated cells, and carried out, for example, by the following procedures:
(§1) Rhesus monkey smooth muscle cells (from the arterial, eg aorta wall) obtained by the method of K. Fisher-Dzoga et al (Experimental and Molecular Pathology 18, 162-176 (1973)) are routinely grown in 75 cm^2 tissue culture flasks using Minimum Essential Medium (Eagle) supplemented with 10% fetal bovine serum. For testing a 75 cm^2 flask with a near confluent cell growth is selected. The cells are removed from the flask surface by mild enzymatic treatment with pronase. After centrifugation and decanting the enzyme solution, the cell pellet is resuspended in an appropriate volume of media for seeding the desired number of 60 mm tissue culture dishes. Five (5) ml of the diluted cell suspension are pipetted into each dish. After seeding, the dishes are labelled with the cell type, date and flask number of origin and incubated at 37° C. in approximately 5% CO2 atmosphere in a high humidity incubator. When the cultures are confluent, the actual drug testing is begun. Test compounds are routinely solubilized in 100% ethanol. An equivalent amount of ethanol is added to control groups as well. The tissue culture dishes are randomly divided into groups. To one group, hyperlipemic rabbit serum (HRS) is added at 5% by volume (control). To the remaining groups, 5% HRS and 1 mg per 100 ml of media of the test compound are added. The dishes are returned to the incubator for an additional 24 hours. All operations through to the final incubation are performed using sterile technique in a laminar flow hood. After the incubation period, the dishes are microscopically observed with the Zeiss Axiomat with phase contrast optics and the conditions of the cultures are recorded; especially in regard to the size, number and configuration of cytoplasmic inclusions and to cellular morphology. The media is removed from the cultures and 0.9% sodium chloride solution is added. The cells are removed from the flasks with the aid of a rubber policeman and transferred to a conical graduated centrifuge tube. The cells are washed three times by suspending in an isotonic salt solution, centrifuging at 800× g for 10 minutes and aspirating the supernatant fluid.
(§2) An appropriate volume of isopropyl alcohol (about 1 ml/mg protein) is then added to the cell pellet and the sample sonicated with a micro probe (140×3 mm) for 10 seconds with a "LO" setting of 50 on a Bronwell Biosonik IV. After centrifugation for 15 minutes at 800× g, the clear supernatant is decanted and an aliquot taken for cholesterol analysis.
The residue is dissolved in 0.1 N sodium hydroxide and an aliquot taken for protein determination by the method of Lowry, et al. (J. Biol. Chem. 193, 265; 1951). […]

[2] = tested on: serum cholesterol and cholesterol ester levels; experiment: Oral administration to rabbits with high cholesterol diet, serum cholesterol and arterial plaques; type: in vivo; details: oral 200 mg/kg per day for 9 weeks, compared to controls
Fu5AH rat hepatoma cells = experiment: Inhibition of cholesterol ester accumulation in Fu5AH cells; type: cell-based
Excerpt: as §1, with “For” for “Rhesus monkey smooth muscle cells (from the arterial, eg aorta wall) obtained by the method of K. Fisher-Dzoga et al (Experimental and Molecular Pathology 18, 162-176 (1973)) are routinely grown in 75 cm^2 tissue culture flasks using Minimum Essential Medium (Eagle) supplemented with 10% fetal bovine serum. For”, “To the remaining groups, 5% HRS and 1 mg per 100 ml of media of the test compound are added.” left out
as §2
An aliquot of 0.4 ml of free reagent (Reagent A, Table 1 below) is added to a 10×75 mm disposable glass test tube to which 20 μl of the isopropyl alcoholic solution is added and mixed. After standing at room temperature for approximately 5 minutes, 0.8 ml of 0.5 N sodium hydroxide (Reagent C, Table 1) is added and mixed. The fluorescence is measured with an Aminco-Bowman spectrophotofluorometer with an excitation wavelength of 325 nm and emission wavelength of 415 nm. A 1 cm light path cuvette is used with a xenon lamp, an IP28 photomultiplier tube and 2 mm slits.
Total cholesterol: The same procedure described above for free cholesterol is followed for total cholesterol except that the total reagent (Reagent B, Table 1) is used instead of the free reagent and the samples are incubated for 20 minutes at 37° C. before the addition of the 0.5 N sodium hydroxide solution (Reagent C, Table 1).
The amount of cholesterol ester is found by subtracting the amount of free cholesterol from the total cholesterol content of the cells determined by the assay.

[3] = 1 mg test compound per 100 ml of media, 24 hours, listed as A

SMILES: CCCCCCCC/C=C\CCCCCCCC(=O)NC(Cc1c[nH]c2ccccc12)C(=O)OCC (single isomer, unassigned) [Example 2a, α-[(1-oxo-9-octadecenylamino)]-1H-indole-3-propanoic acid, ethyl ester (cis isomer)]
- Cholesterol Free [1, 3]: 50.4 μg/mg cell protein and 54.4 μg/mg cell protein
- Cholesterol Total [1, 3]: 57.4 μg/mg cell protein and 60.3 μg/mg cell protein
- Cholesterol Ester Amount ([1]; 1 mg test compound per 100 ml of media, 24 hours, single culture, controls 23.1 and 21.4, listed as A): 7.0 μg/mg cell protein and 5.9 μg/mg cell protein
- Cholesterol Ester Percent from control ([1]; decrease, significant at P less than 0.01, 1 mg per 100 ml of media): 71.0%
- Cholesterol Ester mean ([1]; mean of two cultures, 1 mg per 100 ml of media, control mean 22.3): 6.5 μg/mg cell protein
- arterial wall plaques [2]: lessened formation or absence of arterial wall plaques
- cholesterol and cholesterol ester serum levels [2]: reduction in cholesterol and cholesterol ester serum levels
- Cholesterol Free (Fu5AH rat hepatoma cells; 10 μg/ml, 5% HRS, Mean ± SEM, p < .01 vs Hyperlipemic Control 40.7 ± 0.6): 76.8 ± 6.5 μg/mg Cell Protein
- Cholesterol Ester (Fu5AH rat hepatoma cells; 10 μg/ml, 5% HRS, Mean ± SEM, p < .01 vs Hyperlipemic Control 152.5 ± 2.3): 40.6 ± 1.3 μg/mg Cell Protein
- Cholesterol Total (Fu5AH rat hepatoma cells; 10 μg/ml, 5% HRS, Mean ± SEM, p < .01 vs Hyperlipemic Control 193.0 ± 2.9): 117.4 ± 5.2 μg/mg Cell Protein
- % inh (cholesterol ester accumulation) (Fu5AH rat hepatoma cells; 10 μg/ml, Table 5): 73%
- inhibition of cholesterol accumulation by cells (Fu5AH rat hepatoma cells; Fu5AH cells): marked inhibition of cholesterol accumulation
- F/T (Fu5AH rat hepatoma cells; calculated from Table 5 (10 μg/ml), hyperlipemic control = 0.21): 0.65
